Numbered stars: 1 amine (or outer) side, 2 acyl side, 3 side chain; on linkers, the order of the positions; unused ones are H or OH. Bridge positions count the residues as written; N and C are the ends. Square brackets hold non-standard residues; d marks the D form. Peptide text beside a SMILES is read from it. * marks the point of attachment. Phe(4-NHCONH2) = NC(=O)Nc1ccc(C[C@H](N)C(=O)O)cc1; Phe(2-CONH2) = NC(=O)c1ccccc1C[C@H](N)C(=O)O; X5 = O=C([C@H](Cc1ccc(CO)cc1)N[*:1])[*:2]; Phe(4-NH2) = Nc1ccc(C[C@H](N)C(=O)O)cc1; Picolinoyl(3,5-F2) = O=C(c1ncc(F)cc1F)*; Picolinoyl(5-F) = O=C(c1ccc(F)cn1)*; Orn(iPr) = CC(C)NCCC[C@H](N)C(=O)O; Oxazole2carbonyl = O=C(c1ncco1)*; 3Pal = N[C@@H](Cc1cccnc1)C(=O)O; ΔPro = O=C(O)[C@@H]1C=CCN1
Key:
[1] = molecular target: T1, hAM2 receptor (CALCRL:RAMP3) (Homo sapiens, UniProt O60896+Q16602); assay: AM2 receptor antagonist activity measured by cAMP assay (HTRF); format: cell-based; settings: for Emax: % MPE: percent of the maximal possible effect, read-out: hAM2-R Efficacy Antag (%) Ave; for Emax / IC50: agonist human adrenomedullin; for IC50: GeneBLAzer CALCRL:RAMP3-CRE-bla Freestyle 293F cells, read-out: hAM2-R IC50 Ave; for selectivity ratio CGRP/AM2: selectivity ratio for hCGRP over hAM2, calculated from the IC50 values
T1 construct: expressed in transfected cells; host or cells: GeneBLAzer CALCRL:RAMP3-CRE-bla Freestyle 293F
Description: Antagonist activity for the adrenomedullin receptor AM2 was determined using the method described in Example 6 above, with the following modifications. Instead of GeneBLAzer® CALCRL:RAMP1-CRE-bla Freestyle™ 293F cells, GeneBLAzer® CALCRL:RAMP3-CRE-bla Freestyle™ 293F cells were used to test activity at hAM2 receptors. The agonist was human adrenomedullin, instead of α-CGRP.
In Table 5, the selectivity ratio for hCGRP over hAM2 is calculated as hCGRP-R IC50/hAM2-R IC50.

[2] = molecular target: T2, hCGRP receptor (CALCRL:RAMP1) (Homo sapiens, UniProt O60894+Q16602); assay: CGRP receptor antagonist activity measured by cAMP assay (HTRF); format: cell-based; settings: agonist human α-CGRP; for Emax: % MPE: percent of the maximal possible effect, read-out: hCGRP-R Efficacy Antag (%) Ave; for IC50: GeneBLAzer CALCRL:RAMP1-CRE-bla Freestyle 293F cells, 30 minutes, read-out: hCGRP-R IC50 Ave
T2 construct: host or cells: GeneBLAzer CALCRL:RAMP1-CRE-bla Freestyle 293F
T2 sequence (Q16602 23-461): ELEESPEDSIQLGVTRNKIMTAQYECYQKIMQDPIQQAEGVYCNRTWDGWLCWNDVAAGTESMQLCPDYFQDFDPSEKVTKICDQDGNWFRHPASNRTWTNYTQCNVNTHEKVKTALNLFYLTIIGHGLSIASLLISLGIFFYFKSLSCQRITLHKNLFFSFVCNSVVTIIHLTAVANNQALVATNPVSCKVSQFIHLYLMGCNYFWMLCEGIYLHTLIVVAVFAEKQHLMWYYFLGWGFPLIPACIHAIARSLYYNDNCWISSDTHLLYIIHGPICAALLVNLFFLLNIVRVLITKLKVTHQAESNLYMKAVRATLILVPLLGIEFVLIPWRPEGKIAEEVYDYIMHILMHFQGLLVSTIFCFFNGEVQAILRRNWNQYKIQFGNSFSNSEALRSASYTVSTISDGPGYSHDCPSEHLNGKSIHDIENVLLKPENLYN
T2 sequence (O60894 27-148): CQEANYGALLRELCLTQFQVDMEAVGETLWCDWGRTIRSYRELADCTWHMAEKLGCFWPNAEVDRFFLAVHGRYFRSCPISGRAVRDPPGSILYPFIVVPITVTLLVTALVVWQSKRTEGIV

T1 sequence (Q16602 23-461): as the sequence (Q16602 23-461) above
T1 sequence (O60896 24-148): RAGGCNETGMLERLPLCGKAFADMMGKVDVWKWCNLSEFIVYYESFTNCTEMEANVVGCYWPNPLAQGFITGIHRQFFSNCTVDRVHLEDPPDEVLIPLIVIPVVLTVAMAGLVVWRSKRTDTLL

Row | Emax [1] [%] | IC50 [1] [nM] | selectivity ratio CGRP/AM2 [1] | Emax [2] [%] | IC50 [2] [nM] | Compound
1 | 99 | 467 | 2770 | 100 | 0.17 | CC(C)NCCC[C@@H]1NC(=O)[C@@H](NC(=O)[C@H](Cc2ccccc2C(N)=O)NC(=O)[C@H](NC(=O)c2ncco2)C(C)C)CSSC[C@@H](C(=O)N[C@@H](Cc2cccnc2)C(N)=O)NC(=O)[C@H](Cc2ccc(N)cc2)NC(=O)[C@@H]2C=CCN2C(=O)CNC(=O)[C@H](C(C)C)NC(=O)[C@H](CC(=O)O)NC1=O [Compound 59, Oxazole-2-carbonyl-D-Val-Phe(2-Cbm)-c(Cys-Orn(iPr)-Asp-Val-Gly-Dhp-4Aph-Cys)-3Pal-NH2] (Oxazole2carbonyl-[dV][Phe(2-CONH2)]C[Orn(iPr)]DVG[ΔPro][Phe(4-NH2)]C[3Pal]-NH2; disulfide 3-10)
2 | 100 | 444 | 3759 | 100 | 0.12 | CC(C)NCCC[C@@H]1NC(=O)[C@@H](NC(=O)[C@H](Cc2ccccc2C(N)=O)NC(=O)[C@H](NC(=O)c2ncco2)C(C)C)CSSC[C@@H](C(=O)N[C@@H](Cc2cccnc2)C(N)=O)NC(=O)[C@H](Cc2ccc(NC(N)=O)cc2)NC(=O)[C@@H]2C=CCN2C(=O)CNC(=O)[C@H](C(C)C)NC(=O)[C@H](CC(=O)O)NC1=O [Compound 60, Oxazole-2-carbonyl-D-Val-Phe(2-Cbm)-c(Cys-Orn(iPr)-Asp-Val-Gly-Dhp-4Uph-Cys)-3Pal-NH2] (Oxazole2carbonyl-[dV][Phe(2-CONH2)]C[Orn(iPr)]DVG[ΔPro][Phe(4-NHCONH2)]C[3Pal]-NH2; disulfide 3-10)
3 | 100 | 89 | 934 | 100 | 0.1 | CC(C)NCCC[C@@H]1NC(=O)[C@@H](NC(=O)[C@H](Cc2ccc(O)cc2)NC(=O)[C@H](NC(=O)c2ccc(F)cn2)C(C)C)CSSC[C@@H](C(=O)N[C@@H](Cc2cccnc2)C(N)=O)NC(=O)[C@H](Cc2ccc(CO)cc2)NC(=O)[C@@H]2CCCN2C(=O)CNC(=O)[C@H](C(C)C)NC(=O)[C@H](CC(=O)O)NC1=O [Compound 61, Picolinoyl(5-F)-D-Val-Tyr-c(Cys-Orn(iPr)-Asp-Val-Gly-Pro-Phe(4-CH2OH)-Cys)-3Pal-NH2] ({Picolinoyl(5-F)}-[dV]YC[Orn(iPr)]DVGP[X5]C[3Pal]-NH2; disulfide 3-10)
4 | 100 | 85 | 592 | 100 | 0.14 | CC(C)NCCC[C@@H]1NC(=O)[C@@H](NC(=O)[C@H](Cc2ccc(O)cc2)NC(=O)[C@H](NC(=O)c2ncc(F)cc2F)C(C)C)CSSC[C@@H](C(=O)N[C@@H](Cc2cccnc2)C(N)=O)NC(=O)[C@H](Cc2ccccc2)NC(=O)[C@@H]2CCCN2C(=O)CNC(=O)[C@H](C(C)C)NC(=O)[C@H](CC(=O)O)NC1=O [Compound 62, Picolinoyl(3,5-F2)-D-Val-Tyr-c(Cys-Orn(iPr)-Asp-Val-Gly-Pro-Phe-Cys)-3Pal-NH2] ({Picolinoyl(3,5-F2)}-[dV]YC[Orn(iPr)]DVGPFC[3Pal]-NH2; disulfide 3-10)
5 | 98 | 85 | 848 | 101 | 0.1 | CC(C)NCCC[C@@H]1NC(=O)[C@@H](NC(=O)[C@H](Cc2ccccc2C(N)=O)NC(=O)[C@H](NC(=O)c2ccc(F)cn2)C(C)C)CSSC[C@@H](C(=O)N[C@@H](Cc2cccnc2)C(N)=O)NC(=O)[C@H](Cc2ccc(CO)cc2)NC(=O)[C@@H]2C=CCN2C(=O)CNC(=O)[C@H](C(C)C)NC(=O)[C@H](CC(=O)O)NC1=O [Compound 63, Picolinoyl(5-F)-D-Val-Phe(2-Cbm)-c(Cys-Orn(iPr)-Asp-Val-Gly-Dhp-Phe(4-CH2OH)-Cys)-3Pal-NH2] ({Picolinoyl(5-F)}-[dV][Phe(2-CONH2)]C[Orn(iPr)]DVG[ΔPro][X5]C[3Pal]-NH2; disulfide 3-10)
